Reference: EPA's ToxRefDB 2

What was measured:
rat [1] = conditions: Fertility (Segment I), Oral, Gavage/Intubation, dose end: 1 generation
rat [2] = conditions: Prenatal developmental toxicity study, Oral, Gavage/Intubation, dose end: 18 GD
rat [3] = conditions: Fertility (Segment I), Oral, Gavage/Intubation, dose end: 1 generation; remark: listed apart in the source
rat [4] = conditions: Multigenerational reproductive toxicity study, sprague dawley, Oral, Feed, dose end: 2 generation
rat [5] = conditions: Combined chronic toxicity/carcinogenicity, sprague dawley, Oral, Feed, dose end: 24 month, group: systemic
rat [6] = conditions: Prenatal developmental toxicity study, sprague dawley, Oral, Gavage/Intubation, dose end: 15 GD
rat [7] = conditions: Subchronic oral toxicity in rodents, sprague dawley, Feed, dose end: 13 week, group: systemic
mouse = conditions: Carcinogenicity, cd1, Oral, Feed, dose end: 78 week, group: systemic
rat [8] = conditions: Prenatal developmental toxicity study, sprague dawley, Oral, Gavage/Intubation, dose end: 15 GD; remark: listed apart in the source
rat [9] = conditions: Multigenerational reproductive toxicity study, sprague dawley, Oral, Feed, dose end: 2 generation; remark: listed apart in the source
rabbit = conditions: Prenatal developmental toxicity study, himalayan, Inhalation, Whole-Body, dose end: 29 GD
rat [10] = conditions: Prenatal developmental toxicity study, wistar, Inhalation, Whole-Body, dose end: 15 GD
[11] = group: maternal, reproductive / reproductive performance / estrous cycle / abnormal + reproductive / reproductive performance / estrous cycle / corpora lutea…
[12] = group: parental, systemic / in life observation / clinical signs / alopecia
[13] = group: parental, systemic / in life observation / clinical signs / alopecia + systemic / in life observation / body weight / body weight + systemic / in life…
[14] = group: developmental, developmental / developmental malformation / eye / microphthalmia + developmental / developmental malformation / general / situs inversus + …
[15] = group: maternal, reproductive / reproductive performance / postimplantation loss / postimplantation loss + reproductive / reproductive performance / …
[16] = group: maternal, reproductive / reproductive performance / fertility / fertility + reproductive / reproductive performance / pregnancy index / pregnancy …
[17] = group: parental, systemic / in life observation / body weight / body weight + systemic / in life observation / clinical signs / body surface staining + …
[18] = group: parental, systemic / in life observation / clinical signs / convulsions
[19] = group: offspring, systemic / in life observation / body weight / offspring (pup) weight
[20] = group: parental, systemic / in life observation / body weight / body weight + systemic / in life observation / body weight / body weight gain
[21] = group: developmental, developmental / developmental malformation / bone / incomplete ossification + developmental / developmental malformation / bone / split …
[22] = group: maternal, systemic / in life observation / body weight / body weight gain + systemic / in life observation / clinical signs / salivation + …
[23] = systemic / in life observation / food consumption / food consumption
[24] = systemic / in life observation / food consumption / food consumption + systemic / clinical chemistry / cholesterol / cholesterol + systemic…
[25] = group: developmental, developmental / developmental malformation / bone / delayed ossification
[26] = group: developmental, developmental / developmental malformation / bone / delayed ossification + developmental / developmental malformation / ureter / distended
[27] = group: maternal, systemic / in life observation / body weight / body weight gain + systemic / in life observation / food consumption / food consumption
[28] = group: maternal, systemic / in life observation / body weight / body weight gain + systemic / in life observation / food consumption / food consumption + …
[29] = group: parental, systemic / pathology microscopic / stomach / proliferation
[30] = group: developmental, developmental / developmental malformation / heart / [other] + developmental / developmental malformation / limb / [other]
[31] = group: maternal, systemic / in life observation / mortality / mortality
[32] = group: developmental, developmental / developmental malformation / bone / incomplete ossification + developmental / developmental malformation / bone / …
[33] = group: developmental, developmental / developmental malformation / bone / malpositioned

O=C(N[C@H]1CN2CCC1CC2)c1cc2ccoc2cn1
LEL (rat [1]; [11]): 150 mg/kg/day
LOAEL (rat [1]; [11]): > 150 mg/kg/day
NEL (rat [1]; [11]): 50 mg/kg/day
NOAEL (rat [1]; [11]): ≥ 150 mg/kg/day
LEL (rat [1]; [12]): 5 mg/kg/day
NEL (rat [1]; [12]): < 5 mg/kg/day
LOAEL (rat [1]; [13]): > 150 mg/kg/day
NOAEL (rat [1]; [13]): ≥ 150 mg/kg/day
LOAEL (rat [2]; [14]): > 150 mg/kg/day
NOAEL (rat [2]; [14]): ≥ 150 mg/kg/day
LEL (rat [2]; group: developmental, developmental / developmental malformation / great vessels / [other]): 20 mg/kg/day
LOAEL (rat [2]; [15]): > 150 mg/kg/day
NEL (rat [2]; [15]): 5 mg/kg/day
NOAEL (rat [2]; [15]): ≥ 150 mg/kg/day
LEL (rat [2]; group: maternal, systemic / in life observation / clinical signs / alopecia): 20 mg/kg/day
LEL (rat [3]; [16]): 150 mg/kg/day
LOAEL (rat [3]; [16]): > 175 mg/kg/day
NEL (rat [3]; [16]): 75 mg/kg/day
NOAEL (rat [3]; [16]): ≥ 175 mg/kg/day
LOAEL (rat [3]; [17]): > 175 mg/kg/day
NOAEL (rat [3]; [17]): ≥ 175 mg/kg/day
LEL (rat [3]; [18]): 7 mg/kg/day
NEL (rat [3]; [18]): < 7 mg/kg/day

CC1COc2ccccc2N1C(=O)C(Cl)Cl (stereo not drawn) [Benoxacor]
LEL (rat [4]; [19]): 45.5 mg/kg/day
LOAEL (rat [4]; [19]): 45.5 mg/kg/day
NEL (rat [4]; [19]): 4.2 mg/kg/day
NOAEL (rat [4]; [19]): 4.2 mg/kg/day
LEL (rat [4]; [20]): 34.8 mg/kg/day
LOAEL (rat [4]; [20]): 34.8 mg/kg/day
NEL (rat [4]; [20]): 3.55 mg/kg/day
NOAEL (rat [4]; [20]): 3.55 mg/kg/day

CCSC(C)CC1CC(=O)C(C(CC)=NOC/C=C/Cl)=C(O)C1 (stereo not drawn) [Clethodim]
NOAEL (rat [5]; systemic / in life observation / body weight / body weight gain + systemic / organ weight / liver / absolute + systemic / pathology …): 19 mg/kg/day
LOAEL (rat [5]; systemic / in life observation / body weight / body weight gain + systemic / organ weight / liver / relative to body weight + systemic / …): 100 mg/kg/day
LEL (rat [5]; systemic / pathology microscopic / bone marrow / hypocellularity): 0.64 mg/kg/day
NEL (rat [5]; systemic / pathology microscopic / bone marrow / hypocellularity + systemic / in life observation / body weight / body weight + systemic / …): 0.18 mg/kg/day
LEL (rat [6]; group: developmental, developmental / developmental malformation / bone / absent + developmental / developmental malformation / mouth / jaw / maxillary …): 100 mg/kg/day
LOAEL (rat [6]; [21]): 350 mg/kg/day
NEL (rat [6]; [21]): 10 mg/kg/day
NOAEL (rat [6]; [21]): 100 mg/kg/day
LOAEL (rat [6]; group: maternal, systemic / in life observation / body weight / body weight gain + systemic / in life observation / clinical signs / salivation): 350 mg/kg/day
LEL (rat [6]; group: maternal, systemic / in life observation / body weight / body weight gain + systemic / in life observation / clinical signs / salivation + systemic / …): 350 mg/kg/day
NEL (rat [6]; [22]): 100 mg/kg/day
NOAEL (rat [6]; [22]): 100 mg/kg/day
LEL (rat [7]; [23]): 25 mg/kg/day
LOAEL (rat [7]; [23]): 25 mg/kg/day
NEL (rat [7]; [24]): 2.3 mg/kg/day
NOAEL (rat [7]; [24]): 2.3 mg/kg/day
LEL (mouse; systemic / pathology microscopic / liver / adenoma + systemic / pathology microscopic / lung / adenoma + systemic / hematology / erythrocyte…): 30 mg/kg/day
NEL (mouse; systemic / pathology microscopic / liver / adenoma + systemic / pathology microscopic / lung / adenoma + systemic / pathology microscopic / …): 3 mg/kg/day
LOAEL (mouse; systemic / pathology microscopic / liver / hypertrophy + systemic / organ weight / liver / relative to body weight + systemic / organ weight…): 150 mg/kg/day
NOAEL (mouse; systemic / pathology microscopic / liver / hypertrophy + systemic / pathology microscopic / liver / adenoma + systemic / hematology / …): 30 mg/kg/day

COC[C@H](C)N(C(=O)CCl)c1c(C)csc1C [Dimethenamid-P]
LEL (rat [8]; [25]): 150 mg/kg/day
LOAEL (rat [8]; [25]): 150 mg/kg/day
NEL (rat [8]; [26]): 25 mg/kg/day
NOAEL (rat [8]; [26]): 25 mg/kg/day
LOAEL (rat [8]; [27]): 25 mg/kg/day
NOAEL (rat [8]; [27]): < 25 mg/kg/day
LEL (rat [8]; [28]): 25 mg/kg/day
NEL (rat [8]; [28]): < 25 mg/kg/day

O=C([O-])C1C2CCC(O2)C1C(=O)[O-].[Na+].[Na+] (stereo not drawn) [Disodium endothal]
LEL (rat [9]; [19]): 10.9 mg/kg/day
LOAEL (rat [9]; [19]): 77.1 mg/kg/day
NEL (rat [9]; [19]): 2.1 mg/kg/day
NOAEL (rat [9]; [19]): 10.9 mg/kg/day
LEL (rat [9]; [29]): 2.1 mg/kg/day
LOAEL (rat [9]; [29]): 2.1 mg/kg/day
NEL (rat [9]; [29]): < 2.1 mg/kg/day
NOAEL (rat [9]; [29]): < 2.1 mg/kg/day

CC(C)CCO [Isopentyl alcohol]
LEL (rabbit; [30]): 0.5 ppm
LOAEL (rabbit; [30]): > 10 ppm
NEL (rabbit; [30]): < 0.5 ppm
NOAEL (rabbit; [30]): ≥ 10 ppm
LEL (rabbit; [31]): 2.5 ppm
LOAEL (rabbit; [31]): 2.5 ppm
NEL (rabbit; [31]): 0.5 ppm
NOAEL (rabbit; [31]): 0.5 ppm
LOAEL (rat [10]; [32]): > 10 ppm
NOAEL (rat [10]; [32]): ≥ 10 ppm
LEL (rat [10]; [33]): 0.5 ppm
NEL (rat [10]; [33]): < 0.5 ppm
LEL (rat [10]; [31]): 0.5 ppm
LOAEL (rat [10]; [31]): > 10 ppm
NEL (rat [10]; [31]): < 0.5 ppm
NOAEL (rat [10]; [31]): ≥ 10 ppm
